Assay results taken from US11096865B2, “Preservative removal from eye drops” (TearClear Corp., priority 2019, dated 2021).

Test: 30 day drop test, API retention after dropper tip packed with OxPO
Assay type: physicochemical
Details: for API concentration in drops: tip packed with OxHDPE A-C 395, 125-250 μm, acid washed; for API concentration: Initial formulation
Procedure: To 60.0 g of ultrapure water was added 0.090 g hydroxyethyl cellulose (Natrosol 250H) and the solution was stirred overnight to dissolve. Subsequently, 0.176 g sodium citrate dihydrate and 0.960 g mannitol were added and the mixture was stirred until completely dissolved. 1.37 g Dorzolamide Hydrochloride, 0.420 g Timolol Maleate and 0.045 g of a 10% aqueous solution of BAK were added and incorporated. The pH was adjusted to 5.65 with 0.01N NaOH solution. The final nominal concentrations are reported below.
An empty dropper tip equipped with a 25 μm filter at the tip exit was packed with approximately […] of OxPO and the backing filter was attached to retain the OxPO packing in place. The weight of the OxPO packing was recorded. The packed tip was then inserted into the neck of an 8 ml dropper bottle containing 5 ml of the API/BAK test solution.
5 ml of the formulation described above containing nominally 5.0 mg/ml Timolol, 20.0 mg/ml Dorzolamide and 75 μg/ml BAK was loaded into six eyedropper bottles packed with OxHDPE (A-C 395, 125-250 μm, acid washed) as described above. Drops were obtained from each bottle twice a day (AM and PM 8 hours apart) and analyzed by HPLC for API and BAK.

SMILES: CCN[C@H]1C[C@H](C)S(=O)(=O)c2sc(S(N)(=O)=O)cc21 [Dorzolamide]
- API concentration in drops (Day 1A): 20.0 mg/mL
- API concentration in drops (Day 1P): 20.1 mg/mL
- API concentration in drops (Day 2A): 19.2 mg/mL
- API concentration in drops (Day 2P): 19.4 mg/mL
- API concentration in drops (Day 3A): 19.5 mg/mL
- API concentration in drops (Day 3P): 19.6 mg/mL
- API concentration in drops (Day 4A): 19.3 mg/mL
- API concentration in drops (Day 4P): 19.7 mg/mL
- API concentration in drops (Day 5A): 19.7 mg/mL
- API concentration in drops (Day 5P): 19.8 mg/mL
- API concentration in drops (Day 6A): 19.8 mg/mL
- API concentration in drops (Day 6P): 20.2 mg/mL
- API concentration in drops (Day 7A): 20.3 mg/mL
- API concentration in drops (Day 7P): 20.3 mg/mL
- API concentration in drops (Day 8A): 20.1 mg/mL
- API concentration in drops (Day 8P): 20.2 mg/mL
- API concentration in drops (Day 9A): 19.8 mg/mL
- API concentration in drops (Day 9P): 19.5 mg/mL
- API concentration in drops (Day 10A): 19.8 mg/mL
- API concentration in drops (Day 10P): 20.1 mg/mL
- API concentration in drops (Day 11A): 19.9 mg/mL
- API concentration in drops (Day 11P): 19.9 mg/mL
- API concentration in drops (Day 12A): 19.8 mg/mL
- API concentration in drops (Day 12P): 19.9 mg/mL
- API concentration in drops (Day 13A): 19.9 mg/mL
- API concentration in drops (Day 13P): 19.9 mg/mL
- API concentration in drops (Day 14A): 19.7 mg/mL
- API concentration in drops (Day 14P): 20.0 mg/mL
- API concentration in drops (Day 15A): 19.8 mg/mL
- API concentration in drops (Day 15P): 19.9 mg/mL
- API concentration in drops (Day 16A): 19.5 mg/mL
- API concentration in drops (Day 16P): 19.8 mg/mL
- API concentration in drops (Day 17A): 19.4 mg/mL
- API concentration in drops (Day 17P): 19.4 mg/mL
- API concentration in drops (Day 18A): 19.7 mg/mL
- API concentration in drops (Day 18P): 19.6 mg/mL
- API concentration in drops (Day 19A): 19.2 mg/mL
- API concentration in drops (Day 19P): 19.5 mg/mL
- API concentration in drops (Day 20A): 19.6 mg/mL
- API concentration in drops (Day 20P): 19.7 mg/mL
- API concentration in drops (Day 21A): 19.6 mg/mL
- API concentration in drops (Day 21P): 19.7 mg/mL
- API concentration in drops (Day 22A): 20.0 mg/mL
- API concentration in drops (Day 22P): 19.5 mg/mL
- API concentration in drops (Day 23A): 19.8 mg/mL
- API concentration in drops (Day 23P): 19.8 mg/mL
- API concentration in drops (Day 24A): 19.8 mg/mL
- API concentration in drops (Day 24P): 19.8 mg/mL
- API concentration in drops (Day 25A): 19.6 mg/mL
- API concentration in drops (Day 25P): 19.7 mg/mL
- API concentration in drops (Day 26A): 20.2 mg/mL
- API concentration in drops (Day 26P): 20.1 mg/mL
- API concentration in drops (Day 27A): 20.1 mg/mL
- API concentration in drops (Day 27P): 20.1 mg/mL
- API concentration in drops (Day 28A): 20.1 mg/mL
- API concentration in drops (Day 28P): 19.9 mg/mL
- API concentration in drops (Day 29A): 19.6 mg/mL
- API concentration in drops (Day 29P): 19.6 mg/mL
- API concentration in drops (Day 30A): 20.1 mg/mL
- API concentration in drops (Day 30P): 20.1 mg/mL
- API concentration: 21.0 (mg/ml)

SMILES: CC(C)(C)NC[C@H](O)COc1nsnc1N1CCOCC1 [Timolol]
- API concentration in drops (Day 1A): 4.93 mg/mL
- API concentration in drops (Day 1P): 4.91 mg/mL
- API concentration in drops (Day 2A): 4.51 mg/mL
- API concentration in drops (Day 2P): 4.64 mg/mL
- API concentration in drops (Day 3A): 4.60 mg/mL
- API concentration in drops (Day 3P): 4.65 mg/mL
- API concentration in drops (Day 4A): 4.59 mg/mL
- API concentration in drops (Day 4P): 4.72 mg/mL
- API concentration in drops (Day 5A): 4.68 mg/mL
- API concentration in drops (Day 5P): 4.78 mg/mL
- API concentration in drops (Day 6A): 4.76 mg/mL
- API concentration in drops (Day 6P): 4.90 mg/mL
- API concentration in drops (Day 7A): 4.86 mg/mL
- API concentration in drops (Day 7P): 4.91 mg/mL
- API concentration in drops (Day 8A): 4.85 mg/mL
- API concentration in drops (Day 8P): 4.89 mg/mL
- API concentration in drops (Day 9A): 4.84 mg/mL
- API concentration in drops (Day 9P): 4.87 mg/mL
- API concentration in drops (Day 10A): 4.89 mg/mL
- API concentration in drops (Day 10P): 4.90 mg/mL
- API concentration in drops (Day 11A): 4.89 mg/mL
- API concentration in drops (Day 11P): 4.96 mg/mL
- API concentration in drops (Day 12A): 4.86 mg/mL
- API concentration in drops (Day 12P): 4.95 mg/mL
- API concentration in drops (Day 13A): 4.89 mg/mL
- API concentration in drops (Day 13P): 4.93 mg/mL
- API concentration in drops (Day 14A): 4.86 mg/mL
- API concentration in drops (Day 14P): 4.97 mg/mL
- API concentration in drops (Day 15A): 4.87 mg/mL
- API concentration in drops (Day 15P): 4.93 mg/mL
- API concentration in drops (Day 16A): 4.90 mg/mL
- API concentration in drops (Day 16P): 5.01 mg/mL
- API concentration in drops (Day 17A): 4.90 mg/mL
- API concentration in drops (Day 17P): 4.97 mg/mL
- API concentration in drops (Day 18A): 4.98 mg/mL
- API concentration in drops (Day 18P): 4.97 mg/mL
- API concentration in drops (Day 19A): 4.87 mg/mL
- API concentration in drops (Day 19P): 4.98 mg/mL
- API concentration in drops (Day 20A): 4.99 mg/mL
- API concentration in drops (Day 20P): 5.02 mg/mL
- API concentration in drops (Day 21A): 4.92 mg/mL
- API concentration in drops (Day 21P): 4.95 mg/mL
- API concentration in drops (Day 22A): 4.98 mg/mL
- API concentration in drops (Day 22P): 4.93 mg/mL
- API concentration in drops (Day 23A): 4.96 mg/mL
- API concentration in drops (Day 23P): 4.97 mg/mL
- API concentration in drops (Day 24A): 4.94 mg/mL
- API concentration in drops (Day 24P): 4.96 mg/mL
- API concentration in drops (Day 25A): 4.90 mg/mL
- API concentration in drops (Day 25P): 4.93 mg/mL
- API concentration in drops (Day 26A): 4.97 mg/mL
- API concentration in drops (Day 26P): 4.96 mg/mL
- API concentration in drops (Day 27A): 4.96 mg/mL
- API concentration in drops (Day 27P): 4.97 mg/mL
- API concentration in drops (Day 28A): 4.93 mg/mL
- API concentration in drops (Day 28P): 4.95 mg/mL
- API concentration in drops (Day 29A): 4.90 mg/mL
- API concentration in drops (Day 29P): 4.93 mg/mL
- API concentration in drops (Day 30A): 4.98 mg/mL
- API concentration in drops (Day 30P): 4.97 mg/mL
- API concentration: 5.04 (mg/ml)
